According to ChEMBL document CHEMBL1671722, “Comparative in vitro activity profiles of novel bis-indole antibacterials against gram-positive and gram-negative clinical isolates” (Antimicrob Agents Chemother, 2010):
In brackets after ≈: the same amount, converted by molar mass.

What was measured:
Staphylococcus aureus [1] = test: Antimicrobial activity against methicillin-susceptible Staphylococcus aureus by broth microdilution method; format: functional
Staphylococcus aureus [2] = test: Antimicrobial activity against methicillin-resistant Staphylococcus aureus by broth microdilution method; format: functional
[3] = tested on: Staphylococcus epidermidis; test: Antimicrobial activity against methicillin-susceptible Staphylococcus epidermidis by broth microdilution method; format: functional
[4] = tested on: Staphylococcus epidermidis; test: Antimicrobial activity against methicillin-resistant Staphylococcus epidermidis by broth microdilution method; format: functional
Enterococcus faecalis [5] = test: Antimicrobial activity against vancomycin-susceptible Enterococcus faecalis by broth microdilution method; format: functional
Enterococcus faecalis [6] = test: Antimicrobial activity against vancomycin-resistant Enterococcus faecalis by broth microdilution method; format: functional
Enterococcus faecium [7] = test: Antimicrobial activity against vancomycin-susceptible Enterococcus faecium by broth microdilution method; format: functional
Enterococcus faecium [8] = test: Antimicrobial activity against vancomycin-resistant Enterococcus faecium by broth microdilution method; format: functional
Streptococcus pneumoniae [9] = test: Antimicrobial activity against penicillin-susceptible Streptococcus pneumoniae by broth microdilution method; format: functional
Streptococcus pneumoniae [10] = test: Antimicrobial activity against penicillin-intermediate Streptococcus pneumoniae by broth microdilution method; format: functional
Streptococcus pneumoniae [11] = test: Antimicrobial activity against penicillin-resistant Streptococcus pneumoniae by broth microdilution method; format: functional
Streptococcus agalactiae = test: Antimicrobial activity against Streptococcus agalactiae by broth microdilution method; format: functional
Clostridioides difficile = test: Antimicrobial activity against Clostridium difficile by broth microdilution method; format: functional
Escherichia coli = test: Antimicrobial activity against Escherichia coli by broth microdilution method; format: functional
Klebsiella pneumoniae [12] = test: Antimicrobial activity against Klebsiella pneumoniae by broth microdilution method; format: functional
Klebsiella pneumoniae [13] = test: Antimicrobial activity against ESBL-production Klebsiella pneumoniae by broth microdilution method; format: functional
Serratia marcescens = test: Antimicrobial activity against Serratia marcescens by broth microdilution method; format: functional
Proteus mirabilis = test: Antimicrobial activity against Proteus mirabilis by broth microdilution method; format: functional
Acinetobacter baumannii [14] = test: Antimicrobial activity against Acinetobacter baumannii by broth microdilution method; format: functional
Acinetobacter baumannii [15] = test: Antimicrobial activity against multiple dug-resistant Acinetobacter baumannii by broth microdilution method; format: functional
Pseudomonas aeruginosa = test: Antimicrobial activity against Pseudomonas aeruginosa by broth microdilution method; format: functional
Burkholderia cepacia = test: Antimicrobial activity against Burkholderia cepacia by broth microdilution method; format: functional
Haemophilus influenzae = test: Antimicrobial activity against Haemophilus influenzae by broth microdilution method; format: functional
[16] = Cytotoxicity against HeLa cells after 3 days by MTS assay; format: cell-based; conditions: human
[17] = Protein binding to serum; format: ADME, cell-free; conditions: read-out: PB (converted)

SMILES: c1cc2cc(-c3ccc(-c4cc5ccc(C6=NCCN6)cc5[nH]4)cc3)[nH]c2cc1C1=NCCN1
- MIC50 (Staphylococcus aureus [1]): 0.12 µg/mL (≈ 0.27 µM)
- MIC90 (Staphylococcus aureus [1]): 0.25 µg/mL (≈ 0.562 µM)
- MIC (Staphylococcus aureus [2]): 0.06 µg/mL (≈ 0.135 µM)
- MIC50 (Staphylococcus aureus [2]): 0.06 µg/mL (≈ 0.135 µM)
- MIC90 (Staphylococcus aureus [2]): 0.12 µg/mL (≈ 0.27 µM)
- MIC50 [3]: 0.008 µg/mL (≈ 0.018 µM)
- MIC90 [3]: 0.03 µg/mL (≈ 0.0675 µM)
- MIC50 [4]: 0.015 µg/mL (≈ 0.0337 µM)
- MIC90 [4]: 0.03 µg/mL (≈ 0.0675 µM)
- MIC50 (Enterococcus faecalis [5]): 0.06 µg/mL (≈ 0.135 µM)
- MIC90 (Enterococcus faecalis [5]): 0.06 µg/mL (≈ 0.135 µM)
- MIC50 (Enterococcus faecalis [6]): 0.03 µg/mL (≈ 0.0675 µM)
- MIC90 (Enterococcus faecalis [6]): 0.06 µg/mL (≈ 0.135 µM)
- MIC50 (Enterococcus faecium [7]): 0.004 µg/mL (≈ 0.009 µM)
- MIC90 (Enterococcus faecium [7]): 0.015 µg/mL (≈ 0.0337 µM)
- MIC50 (Enterococcus faecium [8]): 0.004 µg/mL (≈ 0.009 µM)
- MIC90 (Enterococcus faecium [8]): 0.004 µg/mL (≈ 0.009 µM)
- MIC50 (Streptococcus pneumoniae [9]): 0.015 µg/mL (≈ 0.0337 µM)
- MIC90 (Streptococcus pneumoniae [9]): 0.03 µg/mL (≈ 0.0675 µM)
- MIC50 (Streptococcus pneumoniae [10]): 0.015 µg/mL (≈ 0.0337 µM)
- MIC90 (Streptococcus pneumoniae [10]): 0.12 µg/mL (≈ 0.27 µM)
- MIC (Streptococcus pneumoniae [11]): 0.03 µg/mL (≈ 0.0675 µM)
- MIC50 (Streptococcus pneumoniae [11]): 0.03 µg/mL (≈ 0.0675 µM)
- MIC90 (Streptococcus pneumoniae [11]): 0.06 µg/mL (≈ 0.135 µM)
- MIC (Streptococcus agalactiae): 0.03 µg/mL (≈ 0.0675 µM)
- MIC50 (Streptococcus agalactiae): 0.03 µg/mL (≈ 0.0675 µM)
- MIC90 (Streptococcus agalactiae): 0.03 µg/mL (≈ 0.0675 µM)
- MIC50 (Clostridioides difficile): 0.06 µg/mL (≈ 0.135 µM)
- MIC90 (Clostridioides difficile): 0.12 µg/mL (≈ 0.27 µM)
- MIC50 (Escherichia coli): 0.12 µg/mL (≈ 0.27 µM)
- MIC90 (Escherichia coli): 0.5 µg/mL (≈ 1.12 µM)
- MIC50 (Klebsiella pneumoniae [12]): 2 µg/mL (≈ 4.5 µM)
- MIC90 (Klebsiella pneumoniae [12]): 8 µg/mL (≈ 18 µM)
- MIC50 (Klebsiella pneumoniae [13]): 1 µg/mL (≈ 2.25 µM)
- MIC90 (Klebsiella pneumoniae [13]): > 16 µg/mL
- MIC50 (Serratia marcescens): 1 µg/mL (≈ 2.25 µM)
- MIC90 (Serratia marcescens): 2 µg/mL (≈ 4.5 µM)
- MIC50 (Proteus mirabilis): > 16 µg/mL
- MIC90 (Proteus mirabilis): > 16 µg/mL
- MIC50 (Acinetobacter baumannii [14]): 8 µg/mL (≈ 18 µM)
- MIC90 (Acinetobacter baumannii [14]): > 16 µg/mL
- MIC50 (Acinetobacter baumannii [15]): > 16 µg/mL
- MIC50 (Pseudomonas aeruginosa): > 16 µg/mL
- MIC90 (Pseudomonas aeruginosa): > 16 µg/mL
- MIC (Burkholderia cepacia): ≤ 0.015 µg/mL
- MIC50 (Burkholderia cepacia): ≤ 0.015 µg/mL
- MIC90 (Burkholderia cepacia): 0.06 µg/mL (≈ 0.135 µM)
- MIC50 (Haemophilus influenzae): 4 µg/mL (≈ 9 µM)
- MIC90 (Haemophilus influenzae): > 16 µg/mL
- CC50 at 72 h [16]: 33 µg/mL (≈ 74.2 µM)
- fraction unbound [17]: 0.75
